Source: patent US11246929B2, “Combination of a protein kinase inhibitor and an additional chemotherapeutic agent” (Merck Patent GmbH, priority 2016, dated 2022)

Experiments:
Assay in all cases: SRB growth inhibition, 93 cell lines panel
Type in all cases: cell-based
A375 = conditions: Homo sapiens, A-375; A375, skin; read-out: GI50 of etoposide (±Compound 1)
Method: (§1) 90 μl of cells, after a 48-hour pre-growth period, were treated by mixing with 10 μl of the compound-containing media (resulting in a final DMSO concentration of 0.1%).
(§2) This is the drug concentration causing a 50% reduction compared to the net protein increase in control cells during the drug incubation period. In other words, G150 is IC50 corrected for time zero. […] TGI was calculated from Ti=Tz. […] It was calculated as 100×[(Ti−Tz)/Tz]=−50.

A2780 = conditions: Homo sapiens; A2780, ovary; read-out: GI50 of etoposide (±Compound 1)
Method: as §1, §2

MDAMB436 = conditions: Homo sapiens, MDA-MB-436; MDAMB436, breast; read-out: GI50 of etoposide (±Compound 1)
Method: as §1, §2

GRANTA-519 = conditions: Homo sapiens; GRANTA-519, hematological; read-out: GI50 of etoposide (±Compound 1)
Method: as §1, §2

WS15-NHL = conditions: hematological, read-out: GI50 of etoposide (±Compound 1)
Method: as §1, §2

NCIH82 = conditions: Homo sapiens, NCI-H82; NCIH82, lung; read-out: GI50 of etoposide (±Compound 1)
Method: as §1, §2

HEK293 = conditions: Homo sapiens; HEK293, kidney; read-out: GI50 of etoposide (±Compound 1)
Method: as §1, §2

OVCAR3 = conditions: Homo sapiens, OVCAR-3; OVCAR3, ovary; read-out: GI50 of etoposide (±Compound 1)
Method: as §1, §2

BXPC3 = conditions: Homo sapiens, BXPC-3; BXPC3, pancreas; read-out: GI50 of etoposide (±Compound 1)
Method: as §1, §2

PANC1005 = conditions: Homo sapiens; PANC1005, pancreas; read-out: GI50 of etoposide (±Compound 1)
Method: as §1, §2

15O31 = conditions: 15O31, kidney; read-out: GI50 of etoposide (±Compound 1)
Method: as §1, §2

CLS439 = conditions: CLS439, bladder; read-out: GI50 of etoposide (±Compound 1)
Method: as §1, §2

CAKI1 = conditions: Homo sapiens, CAKI-1; CAKI1, kidney; read-out: GI50 of etoposide (±Compound 1)
Method: as §1, §2

MINO = conditions: Homo sapiens, hematological, read-out: GI50 of etoposide (±Compound 1)
Method: as §1, §2

SKMEL28 = conditions: Homo sapiens, SK-MEL-28; SKMEL28, skin; read-out: GI50 of etoposide (±Compound 1)
Method: as §1, §2

MIAPACA2 = conditions: Homo sapiens, MIA PaCa-2; MIAPACA2, pancreas; read-out: GI50 of etoposide (±Compound 1)
Method: as §1, §2

JIMT1 = conditions: Homo sapiens, JIMT-1; JIMT1, breast; read-out: GI50 of etoposide (±Compound 1)
Method: as §1, §2

ACHN = conditions: Homo sapiens, kidney, read-out: GI50 of etoposide (±Compound 1)
Method: as §1, §2

SU-DHL-6 = conditions: Homo sapiens; SU-DHL-6, hematological; read-out: GI50 of etoposide (±Compound 1)
Method: as §1, §2

MDAMB435 = conditions: Homo sapiens, MDA-MB-435; MDAMB435, skin; read-out: GI50 of etoposide (±Compound 1)
Method: as §1, §2

HT29 = conditions: Homo sapiens, HT-29; HT29, colon; read-out: GI50 of etoposide (±Compound 1)
Method: as §1, §2

EFO21 = conditions: Homo sapiens, EFO-21; EFO21, ovary; read-out: GI50 of etoposide (±Compound 1)
Method: as §1, §2

A431 = conditions: Homo sapiens, A-431; A431, skin; read-out: GI50 of etoposide (±Compound 1)
Method: as §1, §2

PANC1 = conditions: Homo sapiens, PANC-1; PANC1, pancreas; read-out: GI50 of etoposide (±Compound 1)
Method: as §1, §2

JAR = conditions: placenta, read-out: GI50 of etoposide (±Compound 1)
Method: as §1, §2

MG63 = conditions: Homo sapiens, MG-63; MG63, bone; read-out: GI50 of etoposide (±Compound 1)
Method: as §1, §2

SKBR3 = conditions: Homo sapiens, SK-BR-3; SKBR3, breast; read-out: GI50 of etoposide (±Compound 1)
Method: as §1, §2

RD = conditions: Homo sapiens, muscle, read-out: GI50 of etoposide (±Compound 1)
Method: as §1, §2

IGROV1 = conditions: Homo sapiens, IGROV-1; IGROV1, ovary; read-out: GI50 of etoposide (±Compound 1)
Method: as §1, §2

HT1080 = conditions: Homo sapiens, HT-1080; HT1080, connective tissue; read-out: GI50 of etoposide (±Compound 1)
Method: as §1, §2

GI50 (A375): 378 nM
GI50 (A2780): 62 nM
GI50 (MDAMB436): 378 nM
GI50 (OVCAR3): 2540 nM
GI50 (BXPC3): 7.14 µM
GI50 (PANC1005): 2730 nM
GI50 (SKMEL28): 1890 nM
GI50 (MIAPACA2): 689 nM
GI50 (ACHN): 714 nM
GI50 (SU-DHL-6): 665 nM
GI50 (MDAMB435): 1140 nM
GI50 (HT29): 2220 nM
GI50 (A431): 1520 nM
GI50 (PANC1): 1920 nM
GI50 (SKBR3): 432 nM
GI50 (HT1080): 96 nM
Structure (SMILES): COc1cc([C@@H]2c3cc4c(cc3[C@@H](O[C@@H]3O[C@@H]5CO[C@@H](C)O[C@H]5[C@H](O)[C@H]3O)[C@H]3COC(=O)[C@H]23)OCO4)cc(OC)c1O [Etoposide]
GI50 (GRANTA-519): 247 nM
GI50 (WS15-NHL): 149 nM
GI50 (NCIH82): 1150 nM
GI50 (HEK293): 190 nM
GI50 (15O31): 7.91 µM
GI50 (CLS439): 965 nM
GI50 (CAKI1): 520 nM
GI50 (MINO): 236 nM
GI50 (JIMT1): 17.7 µM
GI50 (EFO21): 8.22 µM
GI50 (JAR): 116 nM
GI50 (MG63): 1020 nM
GI50 (RD): > 10 µM
GI50 (IGROV1): 1060 nM
